Some test systems named below: HOP-62 NSCLC; OVCAR-3 ovarian; A549 NSCLC; HCT-15 colon; UACC-62 melanoma; SF-539 CNS; KM12 colon; SW-620 colon; HS 578T breast; NCI-H226 lung.
Common to all, as to assay: inhibition of tumour cell growth, NCI panel, 48 h

Where “and” joins values, the source holds several entries; their conditions need not be identical. Identical values can stand only once.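 48-hour exposure; five concentrations; linearly interpolated endpoints. The concentration for 50% growth inhibition is given as GI50. TGI marks complete inhibition of growth.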 Where a SMILES comes first, the peptide text is derived from it. The star is where a group is joined. Boc = CC(C)(C)OC(=O)*

Regarding `CN(C)c1ccc(N=Nc2ccccn2)c(O)c1`, the GI50 is 0.311 µM with HOP-62 NSCLC; 0.3 µM in the test on OVCAR-3 ovarian; 0.478 µM in the test with A549 NSCLC; 0.112 µM with HCT-15 colon; 0.369 µM in the test with UACC-62 melanoma; 0.355 µM with SF-539 CNS. In addition, the GI50 with KM12 colon was 0.465 µM; in the test with SW-620 colon, 0.419 µM; in the test on HS 578T breast, 3.53 µM; in the test with NCI-H226 lung, 0.515 µM. For the same compound, the TGI in the test with HOP-62 NSCLC was over 54 µM; in the test with OVCAR-3 ovarian, over 100 µM; with A549 NSCLC, over 100 µM; with HCT-15 colon it was over 100 µM; in the test with SF-539 CNS, 8.44 µM; with KM12 colon, over 76.9 µM. The TGI in the test with SW-620 colon was over 100 µM; with HS 578T breast, over 85.5 µM; in the test with NCI-H226 lung, 8.67 µM.
In the case of `C[C@H](Nc1cc(Cl)nc2c1cnn2[C@@H]1O[C@H](COP(=O)(O)CP(=O)(O)O)[C@@H](O)[C@H]1O)c1ccccc1F`, the GI50 in the test with HOP-62 NSCLC, with OVCAR-3 ovarian, with A549 NSCLC, in the test with HCT-15 colon, in the test with UACC-62 melanoma and in the test on SF-539 CNS was over 100 µM in each case. The GI50 in the test on KM12 colon, with SW-620 colon, in the test with HS 578T breast and in the test with NCI-H226 lung was over 100 µM throughout. Moreover, the TGI with HOP-62 NSCLC, in the test with OVCAR-3 ovarian, in the test on A549 NSCLC, with HCT-15 colon, in the test with UACC-62 melanoma and with SF-539 CNS was over 100 µM throughout. In addition, the TGI with KM12 colon, in the test with SW-620 colon, with HS 578T breast and in the test on NCI-H226 lung was over 100 µM throughout.
With `CN(C)C/C=C/C(=O)Nc1cc2c(Nc3ccc(F)c(Cl)c3)ncnc2cc1O[C@H]1CCOC1`, the GI50 in the test on HOP-62 NSCLC was 2.49 µM and 3.38 µM; in the test on OVCAR-3 ovarian it was 0.232 µM and 0.229 µM; in the test on A549 NSCLC it was 1.48 µM and 1.6 µM; in the test on HCT-15 colon, 1.59 µM and 1.33 µM; in the test with UACC-62 melanoma, 2.39 µM and 3.28 µM; in the test with SF-539 CNS, 1.5 µM and 2.59 µM. Besides, the GI50 is 1.25 µM and 1.99 µM in the test on KM12 colon; 1.38 µM and 1.5 µM with SW-620 colon; 2.4 µM and 1.62 µM in the test on HS 578T breast; 2.04 µM and 5.25 µM in the test on NCI-H226 lung. Also, the TGI was 6.86 µM and > 10 µM with HOP-62 NSCLC; 2.54 µM and > 4.93 µM in the test on OVCAR-3 ovarian; 7.55 µM and > 10 µM in the test on A549 NSCLC; 12.1 µM and > 9.47 µM with HCT-15 colon; 7.49 µM and > 10 µM in the test with UACC-62 melanoma; 4.68 µM and 9.71 µM with SF-539 CNS. The TGI with KM12 colon was 11.3 µM and > 10 µM; in the test with SW-620 colon it was 4.63 µM and > 7.89 µM; in the test with HS 578T breast, 13.3 µM and > 8.16 µM; in the test on NCI-H226 lung, 8.45 µM and > 10 µM.
Regarding `COC(=O)C(C)NC(=O)C(CCSC)NC(=O)C(Cc1ccccc1)NC(=O)OC(C)(C)C` (stereo not drawn) (Boc-Phe-Met-Ala-OMe; configuration not given here), the TGI was over 100 µM in the test on HOP-62 NSCLC; 52.7 µg/mL and > 100 µM in the test with OVCAR-3 ovarian; over 100 µM in the test with A549 NSCLC; over 100 µM in the test with HCT-15 colon; over 100 µM in the test on UACC-62 melanoma; over 100 µM in the test on SF-539 CNS. In addition, the TGI was 51.1 µg/mL and > 100 µM in the test with KM12 colon; 37.2 µg/mL and > 100 µM in the test on SW-620 colon; over 100 µM in the test on HS 578T breast; over 100 µM in the test with NCI-H226 lung. For the same compound, the GI50 is 26.6 µg/mL in the test on OVCAR-3 ovarian; 35.7 µg/mL in the test on A549 NSCLC; 28.2 µg/mL in the test with UACC-62 melanoma; 22.4 µg/mL in the test on KM12 colon; 18.2 µg/mL with SW-620 colon.
Turning to `COC(=O)c1ccc2c(c1)/C(=C\c1cc(Br)c(O)c(Br)c1)C(=O)N2`, the GI50 is 10.5 µM in the test on HOP-62 NSCLC; 8.14 µM in the test on OVCAR-3 ovarian; 8.19 µM with A549 NSCLC; 5.47 µM in the test on HCT-15 colon; 2.77 µM in the test on UACC-62 melanoma; 5.85 µM in the test on SF-539 CNS. The GI50 was 6.79 µM with KM12 colon, 8.4 µM in the test on SW-620 colon, 4.75 µM in the test on HS 578T breast and 14.6 µM in the test on NCI-H226 lung. Moreover, the TGI was over 25 µM in the test on HOP-62 NSCLC; over 25 µM in the test on OVCAR-3 ovarian; over 25 µM with A549 NSCLC; over 25 µM with HCT-15 colon; 8.8 µM with UACC-62 melanoma; over 25 µM in the test on SF-539 CNS. For the same compound, the TGI with KM12 colon was over 25 µM; in the test with SW-620 colon it was over 25 µM; with HS 578T breast, over 22.6 µM; in the test with NCI-H226 lung, over 25 µM.

(Values after PubChem BioAssay (NCI).)
